The text below walks through data of ChEMBL document CHEMBL1909046, “DrugMatrix in vitro pharmacology data”.

The term IC50 denotes the concentration that inhibits the measured activity by half. What is called Ki is a dissociation constant, usually derived from enzyme kinetics or from competition with a known ligand.

Series [1] deals with T1, Alpha-2C adrenergic receptor (Homo sapiens, UniProt P18825).
T1 sequence (P18825 whole entry): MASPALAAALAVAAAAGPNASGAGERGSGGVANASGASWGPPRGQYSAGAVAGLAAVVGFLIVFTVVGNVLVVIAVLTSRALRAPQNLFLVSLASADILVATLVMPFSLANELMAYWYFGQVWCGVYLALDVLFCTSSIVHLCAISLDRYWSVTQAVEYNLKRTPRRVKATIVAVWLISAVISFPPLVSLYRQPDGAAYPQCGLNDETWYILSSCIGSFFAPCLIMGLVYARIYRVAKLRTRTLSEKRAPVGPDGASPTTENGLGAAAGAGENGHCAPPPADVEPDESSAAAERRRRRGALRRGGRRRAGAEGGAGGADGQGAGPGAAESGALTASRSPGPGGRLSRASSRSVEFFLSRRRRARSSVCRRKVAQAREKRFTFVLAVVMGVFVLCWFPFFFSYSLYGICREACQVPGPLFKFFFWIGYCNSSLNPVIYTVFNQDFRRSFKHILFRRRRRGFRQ
Description: DRUGMATRIX: Adrenergic Alpha-2C radioligand binding (ligand: [3H] MK-912). In kind it is cell membranes, Sf9, Membrane.

A short description of series [2]: DRUGMATRIX: Calcium Channel Type L, Benzothiazepine radioligand binding (ligand: [3H] Diltiazem). In kind it is cell membranes, Rattus norvegicus, Wistar, Brain, Membrane. The conditions noted are these: Not Active = under 50% inhibition at 10 µM.
A short description of series [3]: DRUGMATRIX: Serotonin (5-Hydroxytryptamine) 5-HT3 radioligand binding (ligand: [3H] GR-65630). The series is classed as cell membranes, Membrane. The conditions noted are these: hek293; Not Active = under 50% inhibition at 10 µM.
Series [4] in a line: DRUGMATRIX: Glutamate, Kainate radioligand binding (ligand: [3H] Kainic acid). In kind it is cell membranes, Rattus norvegicus, Wistar, Brain, Membrane. The conditions noted are these: Not Active = under 50% inhibition at 10 µM.
Series [5] addresses T2, Polyunsaturated fatty acid lipoxygenase ALOX15 (Oryctolagus cuniculus, UniProt P12530).
T2 sequence (P12530 whole entry): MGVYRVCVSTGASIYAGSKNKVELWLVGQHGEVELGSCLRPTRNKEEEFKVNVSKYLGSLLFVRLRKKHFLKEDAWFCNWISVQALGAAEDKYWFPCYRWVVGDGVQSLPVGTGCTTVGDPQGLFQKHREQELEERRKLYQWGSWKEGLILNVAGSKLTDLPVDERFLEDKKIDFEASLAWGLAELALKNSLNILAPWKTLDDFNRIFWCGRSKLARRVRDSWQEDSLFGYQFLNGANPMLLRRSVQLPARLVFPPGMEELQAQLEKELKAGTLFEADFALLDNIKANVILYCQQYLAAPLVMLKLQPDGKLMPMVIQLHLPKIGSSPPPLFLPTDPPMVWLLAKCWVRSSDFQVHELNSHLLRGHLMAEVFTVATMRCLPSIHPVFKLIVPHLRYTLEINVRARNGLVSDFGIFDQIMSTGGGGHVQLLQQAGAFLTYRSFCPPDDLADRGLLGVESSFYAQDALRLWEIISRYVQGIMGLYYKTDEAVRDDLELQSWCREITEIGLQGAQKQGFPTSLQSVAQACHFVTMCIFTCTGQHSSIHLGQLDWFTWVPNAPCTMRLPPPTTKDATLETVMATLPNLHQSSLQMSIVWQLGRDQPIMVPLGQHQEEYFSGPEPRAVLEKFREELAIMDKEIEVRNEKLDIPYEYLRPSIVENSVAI
Description: biochemical. The series is classed as tissue-based, Reticulocytes. Particulars: reticulocytes.

In another series the target is T3, Cytochrome P450 2A6 (Homo sapiens, UniProt P11509). Also: in other assays of this panel Not Active means under 50% inhibition at 10 µM.
T3 sequence (P11509 whole entry): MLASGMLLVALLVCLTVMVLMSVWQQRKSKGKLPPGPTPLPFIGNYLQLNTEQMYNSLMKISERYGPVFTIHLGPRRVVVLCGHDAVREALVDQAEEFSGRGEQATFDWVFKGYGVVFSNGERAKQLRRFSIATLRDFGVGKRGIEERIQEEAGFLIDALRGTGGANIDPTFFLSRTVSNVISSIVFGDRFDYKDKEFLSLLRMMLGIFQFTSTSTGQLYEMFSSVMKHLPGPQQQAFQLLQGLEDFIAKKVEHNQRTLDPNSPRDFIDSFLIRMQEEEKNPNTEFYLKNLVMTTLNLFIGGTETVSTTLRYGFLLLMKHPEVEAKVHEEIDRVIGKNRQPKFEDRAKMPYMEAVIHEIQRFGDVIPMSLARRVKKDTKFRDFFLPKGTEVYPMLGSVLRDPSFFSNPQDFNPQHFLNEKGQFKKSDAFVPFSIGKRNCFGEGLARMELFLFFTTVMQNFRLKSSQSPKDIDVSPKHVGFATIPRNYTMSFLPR
Particulars: bti-tn-5b1-4.

For `CCN(CC)CCCC(C)Nc1c2ccc(Cl)cc2nc2ccc(OC)cc12` (stereo not given) [QUINACRINE], the IC50 in series [1] (read-out: IC50) is 3.86 µM; in series [2] (read-out: IC50), 1.08 µM; in series [3], “Not Active”; in series [4] it was “Not Active”; in series [5], “Not Active”; against Cytochrome P450 2A6, “Not Active”. Moreover, the Ki is 0.56 µM in series [1] (read-out: Ki); 0.956 µM in series [2] (read-out: Ki); “Not Active” in series [3]; “Not Active” in series [4]; “Not Active” on Cytochrome P450 2A6.

Take `C[C@]12C=CC(=O)C=C1CC[C@H]1[C@@H]3C[C@@H](O)[C@](O)(C(=O)CO)[C@@]3(C)C[C@H](O)[C@@]12F` [TRIAMCINOLONE]: the IC50 entry (in series [1] (sf9); in series [2]; in series [3]; in series [4]; in series [5]; at Cytochrome P450 2A6) was “Not Active” each time. In addition, the Ki entry (in series [2]; in series [3]; in series [4]; on Cytochrome P450 2A6) was “Not Active” throughout.

Turning to `CC[C@]1(O)C[C@@H]2CN(CCc3c([nH]c4ccccc34)[C@@](C(=O)OC)(c3cc4c(cc3OC)N(C)[C@H]3[C@@](O)(C(N)=O)[C@H](O)[C@]5(CC)C=CCN6CC[C@]43[C@@H]65)C2)C1` [VINDESINE], the IC50 entry (in series [1] (sf9); in series [2]; in series [3]; in series [4]; in series [5]; on Cytochrome P450 2A6) was “Not Active” in each case. For the same compound, the Ki entry (in series [2]; in series [3]; in series [4]; at Cytochrome P450 2A6) was “Not Active” in each case.

With `CCN(C(C)=O)c1cccc(-c2ccnc3c(C#N)cnn23)c1` [ZALEPLON], the IC50 result (in series [1] (sf9); in series [2]; in series [3]; in series [4]; in series [5]; on Cytochrome P450 2A6) was “Not Active” each time. The inhibitory constant (Ki) entry (in series [2]; in series [3]; in series [4]; at Cytochrome P450 2A6) was “Not Active” each time.

Consider COBALTOUS CHLORIDE, for which the IC50 entry (in series [1] (sf9); in series [2]; in series [3]; in series [4]; in series [5]; against Cytochrome P450 2A6) was “Not Active” throughout. In addition, the Ki result (in series [1] (sf9); in series [2]; in series [3]; in series [4]; in series [5]; on Cytochrome P450 2A6) was “Not Active” each time.

Regarding COLISTIN, the IC50 entry (in series [1] (sf9); in series [2]; in series [3]; in series [4]; in series [5]; on Cytochrome P450 2A6) was “Not Active” each time. In addition, the Ki result (in series [1] (sf9); in series [2]; in series [3]; in series [4]; in series [5]; at Cytochrome P450 2A6) was “Not Active” in each case.
